According to patent US7968097B2, “Identification of Hla-A2-presented T-cell epitopes derived from the oncofoetal antigen-immature laminin receptor protein and uses thereof” (Immatics Biotechnologies GmbH, priority 2005, dated 2011):
Where “and” joins values, the source holds several entries; their conditions need not be identical. Equal entries are not always repeated.

How the values were obtained:
[1] = system: T cells of HLA-A*0201+ patients with hematological malignancies; assay: IFN-γ ELISPOT, pooled HLA-A*0201+ AML, CLL and multiple myeloma patients; format: cell-based, human; settings: 50 HLA-A*0201+ patients with hematological malignancies
Method: To determine the frequency of iLR1- and iLR2-specific T cells in HLAA*0201^+ AML, CLL and multiple myeloma patients, ELISPOT IFNI’ secretion assay (Tables 3-5) were performed.

[2] = system: T cells of CLL patients (Binet A); assay: IL-10-secreting peptide-specific T cells in CLL patients with early disease; format: cell-based, human; settings: small series of CLL patients with early disease (Binet A); data not shown
Source text: The inventors are currently involved with experiments to elucidate more precisely a possible relationship between the occurrence of anti-OFA/iLRP-specific T cells secreting IFN-γ or IL10 and the stage of disease in patients with CLL and multiple myeloma.

[3] = system: CD8+ lymphocytes from peripheral blood of HLA-A2+ donors; assay: Tetramer analysis of microsphere driven expansion of peptide-specific CD8+ lymphocytes; format: cell-based, human; settings: for Evaluable donors with clearly positive T-cell responses: of 5 evaluable HLA-A2+ donors, microspheres with anti-CD28 plus high density A*0201/peptide; for Evaluable stimulations with clearly positive T-cell responses: of 53 (RPS-001) or 54 (RPS-002) evaluable stimulations among all evaluable donors
Source text: 1×10^6 CD8+ enriched PBMCs per well of the healthy HLA-A2+ donor HBC-065 were stimulated weekly in one well with microspheres coupled to anti-CD28 plus high density tumor antigen A*0201/RPS-001 (upper panel) or high density tumor antigen A*0201/RPS-002 (lower panel) as shown before [Walter, S, et al. Cutting Edge: Predetermined avidity of human CD8 T cells expanded on calibrated MHC/anti-CD28-coated microspheres. J. Immunol. 171(10):4974-8, 2003] with minor modifications. After three stimulations in vitro, cells of both wells were stained with antibody CD8 FITC plus tetramer A*0201/RPS-001 APC and A*0201/RPS-002 PE. Cells are gated on the lymphocyte population (left and middle panel) or on the CD8+ lymphocyte population (right panel). Numbers represent percentage of tetramer^+ within CD8+ lymphocytes. RPS-001=LLAARAIVAI (SEQ ID-No. 1); RPS-002=ALCNTDSPL (SEQ ID-No. 2)
Table 6: Summary of tetramer analysis of microsphere driven expansions of A2/RPS-001 and A2/RPS-002 specific CD8^+ lymphocytes from peripheral blood. 1×10^6 CD8^+ enriched PBMCs per well were stimulated as in FIG. 12 with microspheres coupled to anti-CD28 plus high density tumor antigen A*0201/RPS-001 or high density tumor antigen A*0201/RPS-002. Indicated are number of evaluable HLA-A2^+ donors, number of evaluable donors with at least one clearly positive response, number of evaluable stimulations among all evaluable donors and number of evaluable stimulations with clearly positive responses. RPS001=LLAARAIVAI (SEQ ID-NO: 1); RPS-002=ALCNTDSPL (SEQ ID-NO: 2)

[4] = system: hematological tumor cell lines (K562, IM9, Karpas-422, Balm-3, U266, REH, Ramos, MEC-1); assay: 51Chromium release assay, peptide-specific CTL on tumor cell lines; format: cell-based, human; settings: for cytolytic activity of peptide-specific CTL lines: HLA-A*0201+ hematological tumor lines, primary malignant AML blasts and CLL cells; for recognition of cell lines by peptide-specific T cells: K562, IND/IM9, Karpas-422, Balm-3, U266, REH, MEC-1, Ramos also for ILR2
Source text: (§1) CTL derived from healthy HLA-A*0201^+ individuals were generated using a protocol described elsewhere (Zeis M, Siegel S, Schmitz M et al. Induction of cytotoxic T lymphocytes against hematologic neoplasms by survivin RNA-transfected dendritic cells. J Immunol. 2003; 170, 5391-5397.). For the induction of autologous OFA/ILR, peptide-specific CTL obtained from patients with AML and CLL, CD8^+ T cells were separated from PBMC using immunomagnetic beads (MACS®, Miltenyi, Bergisch-Gladbach, Germany), cultured with autologous OFA/iLR peptide-pulsed fully matured DC and restimulated with autologous peptide-pulsed PBMC in the presence of IL-2 (1 ng/ml, CellConcepts, Weisskirch, Germany). After at least four weekly restimulations, CTL reactivity was determined in a conventional 4 h ^51Chromium release assay. Cold target inhibition assays and antibody blocking experiments were performed as previously described (Zeis M, Siegel S, Schmitz M et al. Induction of cytotoxic T lymphocytes against hematologic neoplasms by survivin RNA-transfected dendritic cells. J Immunol. 2003; 170, 5391-5397.).
(§2) T cells recognizing the ILR1-peptide were tested on K562 [human pro-erythroblastic leukemia cell-line, also known as chronic myelogenous leukemia (CML) cell line, which, due to extremely low levels of HLA, functions as a control for excluding NK cells as effector cells], IND (human B lymphoblastoid cell line), Karpas-422 (human B cell lymphoma), Balm-3 (human non-Burkitt B-lymphoma cell line), U266 (human multiple myeloma), REH (Human B cell precursor leukemia), MEC-1 (human chronic B cell leukemia). The same T cells were used to test autologous and allogeneic PBMC from healthy donors as controls. […] The response is not directed against allogeneic major or minor histocompatibility complex antigens. • 3. ILR1 peptide is recognized in an HLA-restricted fashion. • 4. The restriction is allele-specific (specific for A*02). Target: AML
T cells recognizing the ILR2-peptide (FIG. 6) were tested on K562 [human proerythroblastic leukemia cell-line, also known as chronic myelogenous leukemia (CML) cell line, which, due to extremely low levels of HLA, functions as a control for excluding NK cells as effector cells], IM9 (human B lymphoblastoid cell line), Karpas-422 (human B cell lymphoma), Balm-3 (human non-Burkitt B-lymphoma cell line), U266 (human multiple myeloma), REH (Human B cell precursor leukemia), Ramos (synonym: RA 1; a human Burkittt's lymphoma B lymphoblast), MEC-1 (human chronic B cell leukemia). The same T cells were used to test autologous and allogeneic PBMC from healthy donors as controls.

[5] = system: PBMC from healthy donors, CD34-positive progenitor cells, bone marrow cells; assay: 51Chromium release assay, peptide-specific CTL on normal cells; format: cell-based, human; settings: for recognition of bone marrow cells by peptide-specific T cells: A*02-positive donors (BM-01, -02); for recognition of CD34-positive bone-marrow-derived progenitor cells by peptide-specific T cells: A*02-positive donors (CD34-01, -02)
Source text: as §1, §2

[6] = system: peptide-pulsed 51Cr-labelled T2 cells; assay: Cold target inhibition assay; format: cell-based, human
Source text: as §1
A cold target inhibition assay was performed. To examine whether ILR1-specific T cells lyse ILR1 peptide-pulsed T2 cells specifically and in the context of HLA-A*02, cold target inhibition assays were performed as follows: ^51Cr-labelled T2 cells were loaded with peptide in a concentration of 10 microgram peptide/10^6 T2 cells/ml. A total of 2×10^5 unlabelled, T2 cells, which had equally been loaded with the same or a control peptide, were then added in a volume of 50 microliter AIMV to 10^4 peptide-pulsed, ^51Cr-labelled T2 cells. Effector T cells specific for ILR1 were added and a ^51Cr-release assay was performed as described above.
A cold target inhibition assay was performed as described under “T2+ILR1” above.

[7] = system: PBMC of HLA-A*02 positive healthy donors; assay: IFN-γ ELISPOT, healthy donors; settings: healthy donors, HLA-A*02 positive; one value per donor (table line); T cells cultured seven days with IL-2
Method: To determine the frequency of OFA/iLR peptide-specific T cells in patients, ELISPOT-assays were performed using the Interferon-γ-ELISPOT-Kit (Becton Dickinson, Heidelberg, Germany) according to manufacturer's instructions.
Prior to analysis, T cells from patients and healthy donors had been kept in culture for seven days in the presence of Interleukin-2 (IL microgram/10^6 PBMC/milliliter).

[8] = hot target ILR1-peptide-pulsed T2, effectors ILR1-specific CTL, 10 microgram peptide/10^6 T2 cells/ml
[9] = hot target ILR2-peptide-pulsed T2, effectors ILR2-specific CTL

Sequence | patients with significant levels of peptide-specific T cells [1] [%] | IL-10-secreting T cells specific for the peptide [2] | Evaluable donors with clearly positive T-cell responses [3] | Evaluable stimulations with clearly positive T-cell responses [3] | cytolytic activity of peptide-specific CTL lines [4] | recognition of cell lines by peptide-specific T cells [4] | lysis of HLA-A2-negative targets and normal hematopoietic cells by peptide-specific CTL lines [5] | recognition of allogeneic and autologous PBMC from healthy donors by peptide-specific T cells [5] | recognition of bone marrow cells by peptide-specific T cells [5] | recognition of CD34-positive bone-marrow-derived progenitor cells by peptide-specific T cells [5] | competition of cold targets loaded with the peptide for lysis [6, 8] | competition of cold targets loaded with the peptide for lysis [6, 9] | # of positively stained spots (IFN-γ ELISPOT) [7]
ALCNTDSPL (listed as Homo sapiens) [ILR2] | 40 | no relevant IL-10-secreting T cells | 1 | 1 | strong cytolytic activity | All cell lines except Ramos and MEC-1, which do not express the HLA-A*02 allele, and K562, which is deficient for HLA class I gene expression in general, were recognized | spared | not recognized | not recognized | not recognized | neither peptides irrelevant for ILR1-specific CTL (Survivin and ILR2), nor unloaded T2 cells, which display empty HLA-A*02 molecules on their cell surfaces, compete for lysis | compete with the primary target cells | 0 per 105 PBMC (5×) and 3 per 105 PBMC (2×) and 2 per 105 PBMC and 4 per 105 PBMC (3×) and 5 per 105 PBMC (2×) and 6 per 105 PBMC and 7 per 105 PBMC
LLAARAIVAI (listed as Homo sapiens) [ILR1] | 50 | no relevant IL-10-secreting T cells | 5 | 29 | strong cytolytic activity | All cell lines except MEC-1, which does not express the HLA-A*02 allele, and K562, which is deficient for HLA class I gene expression in general, were recognized | spared | not recognized | not recognized | not recognized | compete with the primary target cells | neither peptides irrelevant for ILR2-specific CTL (Survivin and ILR1), nor unloaded T2 cells, which display empty HLA-A*02 molecules on their cell surfaces, compete for lysis | 0 per 105 PBMC (5×) and 3 per 105 PBMC (2×) and 2 per 105 PBMC and 4 per 105 PBMC (3×) and 5 per 105 PBMC (2×) and 6 per 105 PBMC and 7 per 105 PBMC
